# From patent publication US20020032154A1, “Interferon-suppressing placental lactogen peptides” (priority 2000, published 2002)
# T1: hGH receptor (Homo sapiens, UniProt P10912)
# T1 sequence (P10912 19-638): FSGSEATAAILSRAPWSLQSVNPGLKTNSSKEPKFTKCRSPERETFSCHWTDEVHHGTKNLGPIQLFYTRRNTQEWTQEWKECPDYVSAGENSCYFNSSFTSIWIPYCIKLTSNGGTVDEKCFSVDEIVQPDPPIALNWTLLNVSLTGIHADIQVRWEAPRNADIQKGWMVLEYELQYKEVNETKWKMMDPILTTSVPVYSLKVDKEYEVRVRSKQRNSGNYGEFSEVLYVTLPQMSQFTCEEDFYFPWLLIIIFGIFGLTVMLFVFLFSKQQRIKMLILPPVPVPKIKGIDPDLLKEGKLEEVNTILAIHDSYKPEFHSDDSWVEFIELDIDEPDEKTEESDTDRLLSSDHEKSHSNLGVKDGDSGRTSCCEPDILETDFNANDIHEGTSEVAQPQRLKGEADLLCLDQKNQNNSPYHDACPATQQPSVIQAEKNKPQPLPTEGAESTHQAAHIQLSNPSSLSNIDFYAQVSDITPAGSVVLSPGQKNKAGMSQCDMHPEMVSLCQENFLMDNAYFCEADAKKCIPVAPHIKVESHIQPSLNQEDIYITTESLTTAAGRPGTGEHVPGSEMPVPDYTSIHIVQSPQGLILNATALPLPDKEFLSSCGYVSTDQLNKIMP
# Tests used:
# [1] = intravenous insulin tolerance test; cited from earlier work
# [2] = glucose-dependent manner; cited from earlier work
# [3] = biological target: insulin receptor (Homo sapiens, UniProt P06213); details: isolated cells; cited from earlier work
# [4] = tested on: MHC class II antigens (HLA-DR, DP, and DQ); assay: Flow cytometry of IFN-gamma-inducible MHC class II antigens in stably transfected HeLa cells; type: cell-based, human; details: HeLa cells stably expressing the peptide; any dose of IFN-gamma up to 1000 U/ml, 42 h; vs vector-transfected control cells
# Protocol: (§1) For this reason the function of the cloned cDNA was tested directly using pools of stably transfected HeLa cells. Expression of three families of endogenous IFN-gamma-responsive genes in this reporter cell line was determined by flow cytometry using monoclonal antibodies that recognize MHC class II antigens (HLA-DR, DP, and DQ alpha chains), MHC class I heavy chains (HLA-A, B, and C ), and ICAM-1 antigen.
# (§2) The hPL(1-28)-encoding cDNA was subcloned into the mammalian expression vector pSH4-hphm using standard methods. HeLa cells (100 mm dishes) were transfected with […] of HPL(1-28)-pSH4-hph^m DNA or empty vector (negative control) by calcium phosphate-mediated transfection. Stable transfectants were selected with hygromycin at […] for at least 16 days. Flow cytometric analysis was performed on stably transfected pools of cells that were treated in culture with IFN-gamma (0, 20, 66, 200, and 1000 U/ml) for 42 h and suspended for analysis by light trypsinization. […] Antibody binding was detected with FITC-goat anti-mouse antibody (Biomeda), and 20,000 cells were analyzed with a FACScan (Becton-Dickinson).
# [5] = tested on: MHC class I antigens (HLA-A, B, and C); assay: Flow cytometry of constitutive and IFN-gamma-inducible MHC class I antigens in stably transfected HeLa cells; type: cell-based, human; details: HeLa cells stably expressing the peptide
# Protocol: as §1, §2
# [6] = tested on: ICAM-1 antigen; assay: Flow cytometry of ICAM-1 antigen in stably transfected HeLa cells; type: cell-based, human; details: HeLa cells stably expressing the peptide
# Protocol: as §1
# The hPL(1-28)-encoding cDNA was subcloned into the mammalian expression vector pSH4-hphm using standard methods. HeLa cells (100 mm dishes) were transfected with […] of HPL(1-28)-pSH4-hph^m DNA or empty vector (negative control) by calcium phosphate-mediated transfection. Stable transfectants were selected with hygromycin at […] for at least 16 days. Flow cytometric analysis was performed on stably transfected pools of cells that were treated in culture with IFN-gamma (0, 20, 66, 200, and 1000 U/ml) for 42 h and suspended for analysis by light trypsinization. Cells were stained at 4° C. with 10 µg/ml solutions of mAb CR 3/43 (Dako) specific for MHC class II antigens HLA-DP, HLA-DQ, and HLA-DR, mAb G46-2.6 (Pharmingen) specific for MHC class I antigens HLA-A, HLA-B, and HLA-C heavy chains, mAb HA58 (Pharmingen) specific for ICAM-1 antigen, and either non-immune mouse IgG1 or IgG2a as negative control. Antibody binding was detected with FITC-goat anti-mouse antibody (Biomeda), and 20,000 cells were analyzed with a FACScan (Becton-Dickinson).
# [7] = tested on: bovine brain capillary endothelial cell (BBCE); details: cited from earlier work
# [8] = biological target: T1, hGH receptor; details: relative to hGH; cited from earlier work
# [9] = tested on: peripheral blood T-lymphocyte; details: in vitro; exogenous full-length hormone; cited from earlier work
# [10] = tested on: tonsil B-lymphocyte; details: in vitro; exogenous full-length hormone; cited from earlier work
molecule,measurement,setting,value
"hGH(6-13): octapeptide representing residues 6-13 of hGH (LSRLFDNA; UniProt P01241 32-39, looked up, fragment)",hypoglycemic activity,[1],hypoglycemic activity
same,insulin secretion,[2],augmented
same,binding of insulin to insulin receptor,[3],increased
"VQTVPLSRLFDHAMLQAHRAHQLAIDTY (VQTVPLSRLFKEAMLQAHRAHQLAIDTY; HOMO SAPIENS; hPL(1-28) peptide) [isolated peptide, N-terminal 28 residues of secreted human placental lactogen; tested as product of transfected cDNA]","levels of HLA-DR, DP, and DQ antigens after IFN-gamma treatment",[4],not increased
same,IFN-gamma-induced high level expression of class I genes,[5]; IFN-gamma treatment 42 h,did not induce high level expression
same,"constitutive expression of MHC class I genes (HLA-A, B, and C antigens)",[5]; absence of IFN-gamma,not reduced
same,fraction of ICAM-1 high-level positive cells,[6]; 20 U/ml of IFN-gamma,less
same,cells expressing ICAM-1 at high level,[6]; absence of IFN-gamma treatment,More than 50%
same,fraction of ICAM-1 high-level positive cells,[6]; higher doses of IFN-gamma (above 20 U/ml),still lower
"hPRL: Human prolactin (protein, UniProt P01236 29-227, looked up) Prolactin: LPICPGGAARCQVTLRDLFDRAVVLSHYIHNLSSEMFSEFDKRYTHGRGFITKAINSCHTSSLATPEDKEQAQQMNQKDFLSLIVSILRSWNEPLYHLVTEVRGMQEAPEAILSKAVEIEEQTKRLLEGMELIVSQVHPETKENEIYPVWSGLPSLQMADEESRLSAYYNLLHCLRRDSHKIDNYLKLLKCRIIHNNNC",effect on bFGF-induced BBCE cell proliferation,[7],no significant additive somatotropic effect
"hPL: full-length human placental lactogen, mature polypeptide encoded by hPL-3 and hPL-4 genes (protein, UniProt P0DML2 27-217, looked up) Chorionic somatomammotropin …: VQTVPLSRLFDHAMLQAHRAHQLAIDTYQEFEETYIPKDQKYSFLHDSQTSFCFSDSIPTPSNMEETQQKSNLELLRISLLLIESWLEPVRFLRSMFANNLVYDTSDSDDYHLLKDLEEGIQTLMGRLEDGSRRTGQILKQTYSKFDTNSHNHDALLKNYGLLYCFRKDMDKVETFLRMVQCRSVEGSCGF","binding to the hGH receptor, weaker than hGH",[8],2300 fold
same,peripheral blood T-lymphocyte mitogenic response to phytohemagglutinin,[9],reduced
same,tonsil B-lymphocyte mitogenic response to lipopolysaccharide,[10],reduced
same,effect on bFGF-induced BBCE cell proliferation,[7],no significant additive somatotropic effect
